Laboratory results reported in patent publication US7981903B2, “2-[2-{phenylamino}-1H-pyrrolo[2,3-D]pyrimidin-4-yl)amino] benzamide derivatives as IGF-1R inhibitors for the treatment of cancer” (GlaxoSmithKline LLC, priority 2007, dated 2011).

Tests used:
human IGF1R (hIGF1R) = molecular target: T1, human IGF1R (hIGF1R) (Homo sapiens, UniProt P08069); assay: TR-FRET kinase assay of purified hIGF1R; assay type: biochemical; details: activated hIGF1R 0.5 nM, 10 μM ATP, values given as pIC50 category, read-out: IGF-1R pIC50 (converted)
T1 construct: containing amino acid residues 957-1367 of human IGF1R; made in house; host or cells: Sf9 cells (baculovirus)

human IR (hIR) = molecular target: T2, human IR (hIR) (Homo sapiens, UniProt P06213); assay: TR-FRET kinase assay of purified hIR; assay type: biochemical; details: activated hIR 0.5 nM, 10 μM ATP, values given as pIC50 category
T2 construct: containing amino acid residues 979-1382 of human IR; made in house; host or cells: Sf9 cells (baculovirus), same process as hIGF1R

[1] = molecular target: T3, NIH-3T3 cells overexpressing human IGF-1R (Homo sapiens, UniProt P08069); assay: IGF-1R cellular autophosphorylation (DELFIA); assay type: cell-based
T3 construct: expressed in transfected cells; host or cells: NIH-3T3 (mouse fibroblasts)
How it was run: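 Receptor autophosphorylation measured by DELFIA, capturing IGF-1R or IRβ and detecting with europium anti-pTyr, reported as percent of IGF-1- or insulin-stimulated signal. Compounds (30 uM to 1.5 nM) added 2 h before ligand, then 15 min stimulation (IGF-1 30 ng/ml or insulin 3 ug/ml).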

T3 sequence (P08069 31-1367): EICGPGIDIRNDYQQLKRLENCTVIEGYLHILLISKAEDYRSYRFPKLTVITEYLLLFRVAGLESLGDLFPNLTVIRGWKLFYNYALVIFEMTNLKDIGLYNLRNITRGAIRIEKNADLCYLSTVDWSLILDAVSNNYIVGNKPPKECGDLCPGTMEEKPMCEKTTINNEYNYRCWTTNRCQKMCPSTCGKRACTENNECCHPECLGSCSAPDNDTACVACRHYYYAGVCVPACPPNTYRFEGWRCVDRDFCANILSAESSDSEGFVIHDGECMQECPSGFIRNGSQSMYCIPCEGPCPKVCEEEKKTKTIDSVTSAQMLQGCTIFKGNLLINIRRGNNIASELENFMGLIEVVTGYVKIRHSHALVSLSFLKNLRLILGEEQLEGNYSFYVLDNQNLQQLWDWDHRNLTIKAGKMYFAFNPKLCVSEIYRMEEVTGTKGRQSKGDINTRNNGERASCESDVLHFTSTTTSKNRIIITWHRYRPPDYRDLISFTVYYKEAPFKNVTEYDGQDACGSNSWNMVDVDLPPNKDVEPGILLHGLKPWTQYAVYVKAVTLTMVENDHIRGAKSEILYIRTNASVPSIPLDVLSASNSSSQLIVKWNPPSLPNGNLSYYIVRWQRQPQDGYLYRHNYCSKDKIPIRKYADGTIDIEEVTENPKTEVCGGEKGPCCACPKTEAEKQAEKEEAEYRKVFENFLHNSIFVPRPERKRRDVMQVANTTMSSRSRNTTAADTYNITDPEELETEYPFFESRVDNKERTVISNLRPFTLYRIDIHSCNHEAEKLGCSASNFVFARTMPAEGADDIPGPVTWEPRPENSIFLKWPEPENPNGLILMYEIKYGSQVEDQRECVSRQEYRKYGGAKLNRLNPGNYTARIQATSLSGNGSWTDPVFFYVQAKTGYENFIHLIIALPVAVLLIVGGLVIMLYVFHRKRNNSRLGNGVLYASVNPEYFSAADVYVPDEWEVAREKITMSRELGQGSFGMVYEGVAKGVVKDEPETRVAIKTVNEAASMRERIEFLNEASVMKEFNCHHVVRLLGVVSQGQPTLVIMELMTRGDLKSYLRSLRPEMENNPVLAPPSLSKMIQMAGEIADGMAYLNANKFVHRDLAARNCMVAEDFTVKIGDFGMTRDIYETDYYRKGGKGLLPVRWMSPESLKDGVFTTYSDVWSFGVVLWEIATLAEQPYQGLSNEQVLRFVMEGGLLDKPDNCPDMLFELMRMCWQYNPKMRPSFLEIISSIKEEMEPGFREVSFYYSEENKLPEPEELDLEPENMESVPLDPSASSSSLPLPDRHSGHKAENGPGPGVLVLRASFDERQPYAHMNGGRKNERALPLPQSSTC
T2 sequence (P06213 979-1382): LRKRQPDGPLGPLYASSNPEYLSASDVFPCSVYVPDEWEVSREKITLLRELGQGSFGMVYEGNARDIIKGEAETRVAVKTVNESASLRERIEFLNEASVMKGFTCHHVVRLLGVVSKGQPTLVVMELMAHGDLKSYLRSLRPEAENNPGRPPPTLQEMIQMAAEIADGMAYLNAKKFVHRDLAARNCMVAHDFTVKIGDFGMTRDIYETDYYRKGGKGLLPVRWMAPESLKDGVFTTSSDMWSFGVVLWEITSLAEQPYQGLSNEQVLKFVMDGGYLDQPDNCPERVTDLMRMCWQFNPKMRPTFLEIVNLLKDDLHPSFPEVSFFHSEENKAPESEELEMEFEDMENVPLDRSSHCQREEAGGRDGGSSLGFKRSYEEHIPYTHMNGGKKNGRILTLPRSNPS
T1 sequence (P08069 957-1367): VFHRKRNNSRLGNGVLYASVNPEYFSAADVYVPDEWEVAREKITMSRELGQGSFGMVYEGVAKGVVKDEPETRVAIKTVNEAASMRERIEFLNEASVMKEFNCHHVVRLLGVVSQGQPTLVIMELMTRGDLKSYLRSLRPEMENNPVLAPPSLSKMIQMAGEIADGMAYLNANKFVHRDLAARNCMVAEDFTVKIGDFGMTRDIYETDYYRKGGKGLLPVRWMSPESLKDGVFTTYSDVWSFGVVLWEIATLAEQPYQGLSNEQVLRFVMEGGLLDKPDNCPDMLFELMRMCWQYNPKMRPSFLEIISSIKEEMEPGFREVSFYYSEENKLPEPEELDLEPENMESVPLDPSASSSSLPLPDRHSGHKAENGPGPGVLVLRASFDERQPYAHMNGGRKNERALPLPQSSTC

| IC50 (human IGF1R (hIGF1R)) [nM] | IC50 (human IR (hIR)) [nM] | IC50 [1] [nM] | Compound |
| --- | --- | --- | --- |
| 1.26 to 3.98 | 1.26 to 3.98 | > 500 | CCCN1CCC=C(c2ccc(Nc3nc(Nc4cc(F)ccc4C(=O)N[C@@H](C)CC)c4cc[nH]c4n3)c(OC)c2)C1 [Example 87, 4-fluoro-2-[(2-{[2-(methyloxy)-4-(1-propyl-1,2,5,6-tetrahydro-3-pyridinyl)phenyl]amino}-1H-pyrrolo[2,3-d]pyrimidin-4-yl)amino]-N-[(1S)-1-methylpropyl]benzamide] |
| 1.26 to 3.98 | 1.26 to 3.98 | > 500 | COc1cc(N2CCN(C(C)C)CC2)ccc1Nc1nc(Nc2cc(F)cc(OC)c2C(N)=O)c2cc[nH]c2n1 [Example 88] |
| 1.26 to 3.98 | 1.26 to 3.98 | 100 to 500 | COc1cc(N2CCN(C(C)C)CC2)ccc1Nc1nc(Nc2cc(Cl)cc(F)c2C(N)=O)c2cc[nH]c2n1 [Example 93, 4-chloro-2-fluoro-6-[(2-{[4-[4-(1-methylethyl)-1-piperazinyl]-2-(methyloxy)phenyl]amino}-1H-pyrrolo[2,3-d]pyrimidin-4-yl)amino]benzamide] |
| 1.26 to 3.98 | 1.26 to 3.98 | 100 to 500 | COc1cc(N2CCN(C(C)C)CC2)ccc1Nc1nc(Nc2ccc(F)c(F)c2C(N)=O)c2cc[nH]c2n1 [Example 94, 2,3-difluoro-6-[(2-{[4-[4-(1-methylethyl)-1-piperazinyl]-2-(methyloxy)phenyl]amino}-1H-pyrrolo[2,3-d]pyrimidin-4-yl)amino]benzamide] |
| 0.251 to 1 | 0.251 to 1 | < 100 | COc1cc(C2CCN(C(C)C)CC2)ccc1Nc1nc(Nc2cc(F)c(F)cc2C(N)=O)c2cc[nH]c2n1 [Example 97, 4,5-difluoro-2-[(2-{[4-[1-(1-methylethyl)-4-piperidinyl]-2-(methyloxy)phenyl]amino}-1H-pyrrolo[2,3-d]pyrimidin-4-yl)amino]benzamide] |
| 0.251 to 1 | 0.251 to 1 | < 100 | CCCN1CCC(c2ccc(Nc3nc(Nc4cc(F)c(F)cc4C(N)=O)c4cc[nH]c4n3)c(OC)c2)CC1 [Example 98, 4,5-difluoro-2-[(2-{[2-(methyloxy)-4-(1-propyl-4-piperidinyl)phenyl]amino}-1H-pyrrolo[2,3-d]pyrimidin-4-yl)amino]benzamide] |
| 0.251 to 1 | 0.251 to 1 | < 100 | COc1cc(N2CCC(O)CC2)ccc1Nc1nc(Nc2cc(F)c(F)cc2C(N)=O)c2cc[nH]c2n1 [Example 99] |
| 0.251 to 1 | 0.251 to 1 | < 100 | COc1cc(N2CCC(N3CCCCC3)CC2)ccc1Nc1nc(Nc2cc(F)c(F)cc2C(N)=O)c2cc[nH]c2n1 [Example 100, 2-[(2-{[4-(1,4′-bipiperidin-1′-yl)-2-(methyloxy)phenyl]amino}-1H-pyrrolo[2,3-d]pyrimidin-4-yl)amino]-4,5-difluorobenzamide] |
| 0.251 to 1 | 0.251 to 1 | < 100 | COc1cc(N2CCC(N3CCOCC3)CC2)ccc1Nc1nc(Nc2cc(F)c(F)cc2C(N)=O)c2cc[nH]c2n1 [Example 101, 4,5-difluoro-2-{[2-({2-(methyloxy)-4-[4-(4-morpholinyl)-1-piperidinyl]phenyl}amino)-1H-pyrrolo[2,3-d]pyrimidin-4-yl]amino}benzamide] |
| 0.251 to 1 | 0.251 to 1 | < 100 | COc1cc(N2CCN(C(C)=O)CC2)ccc1Nc1nc(Nc2cc(F)c(F)cc2C(N)=O)c2cc[nH]c2n1 [Example 103, 2-[(2-{[4-(4-acetyl-1-piperazinyl)-2-(methyloxy)phenyl]amino}-1H-pyrrolo[2,3-d]pyrimidin-4-yl)amino]-4,5-difluorobenzamide] |
| 0.251 to 1 | 0.251 to 1 | < 100 | COc1cc(N2CCOCC2)ccc1Nc1nc(Nc2cc(F)c(F)cc2C(N)=O)c2cc[nH]c2n1 [Example 104, 4,5-difluoro-2-[(2-{[2-(methyloxy)-4-(4-morpholinyl)phenyl]amino}-1H-pyrrolo[2,3-d]pyrimidin-4-yl)amino]benzamide] |
| 0.251 to 1 | 0.251 to 1 | < 100 | COc1cc(N2CCOC[C@@H]2C)ccc1Nc1nc(Nc2cc(F)c(F)cc2C(N)=O)c2cc[nH]c2n1 [Example 105, 4,5-difluoro-2-[(2-{[4-[(3S)-3-methyl-4-morpholinyl]-2-(methyloxy)phenyl]amino}-1H-pyrrolo[2,3-d]pyrimidin-4-yl)amino]benzamide] |
| 1.26 to 3.98 | 1.26 to 3.98 | 100 to 500 | COc1cc(N2CCC(C3CCN(CCS(C)(=O)=O)CC3)CC2)ccc1Nc1nc(Nc2cccc(F)c2C(N)=O)c2cc[nH]c2n1 [Example 112, 2-fluoro-6-({2-[(2-(methyloxy)-4-{1′-[2-(methylsulfonyl)ethyl]-4,4′-bipiperidin-1-yl}phenyl)amino]-1H-pyrrolo[2,3-d]pyrimidin-4-yl}amino)benzamide] |
| 1.26 to 3.98 | 0.251 to 1 | < 100 | COc1cc(N2CCC(N3CCN(S(C)(=O)=O)CC3)CC2)ccc1Nc1nc(Nc2cccc(F)c2C(N)=O)c2cc[nH]c2n1 [Example 113, 2-fluoro-6-({2-[(2-(methyloxy)-4-{4-[4-(methylsulfonyl)-1-piperazinyl]-1-piperidinyl}phenyl)amino]-1H-pyrrolo[2,3-d]pyrimidin-4-yl}amino)benzamide] |
| 1.26 to 3.98 | 1.26 to 3.98 | < 100 | COc1cc(N2CCC(N3CCN(CCF)CC3)CC2)ccc1Nc1nc(Nc2cccc(F)c2C(N)=O)c2cc[nH]c2n1 [Example 114, 2-fluoro-6-[(2-{[4-{4-[4-(2-fluoroethyl)-1-piperazinyl]-1-piperidinyl}-2-(methyloxy)phenyl]amino}-1H-pyrrolo[2,3-d]pyrimidin-4-yl)amino]benzamide] |
| 1.26 to 3.98 | 1.26 to 3.98 | 100 to 500 | COc1cc(N2CCC(N3CCN(CCS(C)(=O)=O)CC3)CC2)ccc1Nc1nc(Nc2cccc(F)c2C(N)=O)c2cc[nH]c2n1 [Example 115, 2-fluoro-6-[(2-{[2-(methyloxy)-4-(4-{4-[2-(methylsulfonyl)ethyl]-1-piperazinyl}-1-piperidinyl)phenyl]amino}-1H-pyrrolo[2,3-d]pyrimidin-4-yl)amino]benzamide] |
| 1.26 to 3.98 | 1.26 to 3.98 | 100 to 500 | COc1cc2c(cc1Nc1nc(Nc3cccc(F)c3C(N)=O)c3cc[nH]c3n1)CN(C(=O)CN(C)C)CC2 [Example 123, 2-[(2-{[2-(N,N-dimethylglycyl)-6-(methyloxy)-1,2,3,4-tetrahydro-7-isoquinolinyl]amino}-1H-pyrrolo[2,3-d]pyrimidin-4-yl)amino]-6-fluorobenzamide] |
| 1.26 to 3.98 | 1.26 to 3.98 | 100 to 500 | CCNC(=O)c1c(F)cccc1Nc1nc(Nc2cc3c(cc2OC)CCN3C(=O)CN(C)C)nc2[nH]ccc12 [Example 126, 2-[(2-{[1-(N,N-dimethylglycyl)-5-(methyloxy)-2,3-dihydro-1H-indol-6-yl]amino}-1H-pyrrolo[2,3-d]pyrimidin-4-yl)amino]-N-ethyl-6-fluorobenzamide] |
| 1.26 to 3.98 | 1.26 to 3.98 | < 100 | CNC(=O)c1c(F)cccc1Nc1nc(Nc2cc3c(cc2OC)C(C)(C)CN3C(=O)CN(C)C)nc2[nH]ccc12 [Example 127, 2-[(2-{[1-(N,N-dimethylglycyl)-3,3-dimethyl-5-(methyloxy)-2,3-dihydro-1H-indol-6-yl]amino}-1H-pyrrolo[2,3-d]pyrimidin-4-yl)amino]-6-fluoro-N-methylbenzamide] |
